Results published in ChEMBL document CHEMBL4483862, “Open-source discovery of chemical leads for next-generation chemoprotective antimalarials” (2018).

System: Plasmodium berghei
Assay: Luciferase/luciferin-expressing antifolate-resistant parasites were used to infect a culture of HepG2 cells that were pre-incubated with compounds. Infected hepatocytes emit light due to the luciferase reaction. Assay results are presented as the percent inhibition of light emission compared to control. […]
Format: functional
Details: sporozoite; for IC90: read-out: LUCIFERASE INFECTION ASSAY - IC90
[1] = read-out: LUCIFERASE INFECTION ASSAY - IC50

Structure (SMILES) | IC90 | also measured
CN(C)c1ccc(-c2cc3c(Nc4ccc5c(c4)OCO5)nccc3n2C)cc1 | 3.98 µM | IC50 (HEPG2TOX_HILL_SLOPE 12.1, HEPG2TOX_R_SQUARED 0.137, PBLUC_HILL_SLOPE 13.7, PBLUC_R_SQUARED 0.564, read-out: LUCIFERASE INFECTION ASSAY - IC50): 3.39 µM
CCC(=O)Nc1nc2ccc(NC(=O)c3cc(OC)cc(OC)c3)cc2s1 | > 8.56 µM | IC50 (PBLUC_HILL_SLOPE 2.13, PBLUC_R_SQUARED 0.461, read-out: LUCIFERASE INFECTION ASSAY - IC50): 5.13 µM
Cc1cc(-c2cn3c(-c4cccc(O)c4)cnc3cn2)cc(C)c1O | > 9.96 µM | IC50 (FFLUC_HILL_SLOPE 0.138, FFLUC_R_SQUARED 0.042, HEPG2TOX_HILL_SLOPE 1.55, HEPG2TOX_R_SQUARED 0.983, PBLUC_HILL_SLOPE 3.3, PBLUC_R_SQUARED 0.553, read-out: LUCIFERASE INFECTION ASSAY - IC50): 6.94 µM
COc1ccc2c(-c3ccccc3)cc(SCC(=O)Nc3sccc3C(N)=O)nc2c1 | 9.16 µM | IC50 [1]: 7.85 µM
CCOC(=O)c1c(C)nn(-c2ccc(NC(=O)c3cccs3)cc2)c1C | 5.59 µM | IC50 (PBLUC_HILL_SLOPE 1.61, PBLUC_R_SQUARED 0.613, read-out: LUCIFERASE INFECTION ASSAY - IC50): 1.43 µM
CC1(C)CC(=O)C2Sc3ccccc3N=C2C1 (stereo unspecified) | > 13.5 µM | IC50 (PBLUC_HILL_SLOPE 1.5, PBLUC_R_SQUARED 0.224, read-out: LUCIFERASE INFECTION ASSAY - IC50): 10.8 µM
COC(=O)c1sc(SCCOC(=O)Nc2ccc(OC(F)(F)F)cc2)c2c1CC(C)(C)CC2=O | > 6.38 µM | IC50 (FFLUC_HILL_SLOPE 7.12, FFLUC_R_SQUARED 0.0522, read-out: LUCIFERASE INFECTION ASSAY - IC50): > 6.38 µM
COC(=O)c1c(NC(=O)c2cccnc2)c2cc(NCc3ccco3)cnc2n1Cc1ccccc1 | > 6.85 µM | IC50 (HEPG2TOX_HILL_SLOPE 11.5, HEPG2TOX_R_SQUARED 0.854, PBLUC_HILL_SLOPE 4.03, PBLUC_R_SQUARED 0.534, read-out: LUCIFERASE INFECTION ASSAY - IC50): 4.51 µM
NC(Cc1ccc(F)cc1)c1csc(Nc2nncc3ccccc23)n1 (stereo unspecified) | > 9.03 µM | IC50 [1]: > 9.03 µM
Cc1cc(=O)nc(N(C(=O)Nc2ccccc2)c2cccc(C(F)(F)F)c2)n1C(=O)Nc1ccccc1 | > 10 µM | IC50 (PBLUC_HILL_SLOPE 12.5, PBLUC_R_SQUARED 0.105, read-out: LUCIFERASE INFECTION ASSAY - IC50): 9.27 µM
O=c1nc(/C=C/c2cccc3cccnc23)[nH]c2sc3c(c12)CCCCC3 | > 10 µM | IC50 [1]: > 10 µM
CCn1c(NC(=O)c2c(C)nn(-c3ccccc3)c2C)nc2ccccc21 | 9.89 µM | IC50 (HEPG2TOX_HILL_SLOPE 11.2, HEPG2TOX_R_SQUARED 0.651, PBLUC_HILL_SLOPE 20.8, PBLUC_R_SQUARED 0.508, read-out: LUCIFERASE INFECTION ASSAY - IC50): 8.9 µM
COc1cccc(N/N=C2\C=CC(=O)c3ncccc32)c1 | 3.47 µM | IC50 (HEPG2TOX_HILL_SLOPE 12.1, HEPG2TOX_R_SQUARED 0.589, PBLUC_HILL_SLOPE 8.94, PBLUC_R_SQUARED 0.612, read-out: LUCIFERASE INFECTION ASSAY - IC50): 2.71 µM
CC(C(=O)NC(N)=O)N(C)Cc1ccc(OCc2ccc(Cl)cc2)cc1 (stereo unspecified) | 9.89 µM | IC50 (HEPG2TOX_HILL_SLOPE 2.51, HEPG2TOX_R_SQUARED 0.952, PBLUC_HILL_SLOPE 1.26, PBLUC_R_SQUARED 0.93, read-out: LUCIFERASE INFECTION ASSAY - IC50): 1.73 µM
Cc1ccccc1C(Sc1nnc(-c2ccc[nH]2)o1)c1ccccc1 (stereo unspecified) | > 10 µM | IC50 (HEPG2TOX_HILL_SLOPE 0.627, HEPG2TOX_R_SQUARED 0.488, read-out: LUCIFERASE INFECTION ASSAY - IC50): > 10 µM
Nc1ncc(-c2ccc(F)cc2F)cc1-c1cccc(C(F)(F)F)c1 | > 9.42 µM | IC50 (PBLUC_HILL_SLOPE 3.4, PBLUC_R_SQUARED 0.237, read-out: LUCIFERASE INFECTION ASSAY - IC50): 7.55 µM
Cc1ccccc1/C=N/NC(N)=S | > 17.1 µM | IC50 (HEPG2TOX_HILL_SLOPE 1.52, HEPG2TOX_R_SQUARED 0.966, read-out: LUCIFERASE INFECTION ASSAY - IC50): > 17.1 µM

Structure (SMILES) | IC90 | also measured
CC(C)(C)c1ccc(C2SCC(=O)N2c2ccc(Cl)cc2)cc1 (stereo unspecified) | 6.66 µM | IC50 (PBLUC_HILL_SLOPE 4.61, PBLUC_R_SQUARED 0.0595, read-out: LUCIFERASE INFECTION ASSAY - IC50): 4.13 µM
CN(C)c1cccc(-c2cnc3cnc(-c4ccncc4)cn23)c1 | > 10.5 µM | IC50 (PBLUC_HILL_SLOPE 2.07, PBLUC_R_SQUARED 0.374, read-out: LUCIFERASE INFECTION ASSAY - IC50): 6.53 µM
O=C(OCC(=O)C12CC3CC(CC(C3)C1)C2)c1ccc(Oc2ccc(Cl)cc2[N+](=O)[O-])cc1 | > 10 µM | IC50 (FFLUC_HILL_SLOPE 17.5, FFLUC_R_SQUARED 0.352, PBLUC_HILL_SLOPE 8.52, PBLUC_R_SQUARED 0.214, read-out: LUCIFERASE INFECTION ASSAY - IC50): 9.42 µM
CC(=O)c1ccc(NC(=O)N2[C@@H]3CC[C@@H](C3)[C@H]2c2nc3cccc(OCc4ccc(F)cc4)c3[nH]2)cc1 | > 10 µM | IC50 (FFLUC_HILL_SLOPE 7.32, FFLUC_R_SQUARED 0.306, PBLUC_HILL_SLOPE 12.2, PBLUC_R_SQUARED 0.357, read-out: LUCIFERASE INFECTION ASSAY - IC50): 9.72 µM
Cc1cccc(N2CCN(C(=O)c3cccc(S(=O)(=O)N4CCc5ccccc5C4)c3)CC2C)c1 (stereo unspecified) | > 10 µM | IC50 (HEPG2TOX_HILL_SLOPE 1.53, HEPG2TOX_R_SQUARED 0.865, read-out: LUCIFERASE INFECTION ASSAY - IC50): > 10 µM
c1ccc(CCNCc2cn(-c3ccccc3)nc2-c2cccs2)cc1 | > 10 µM | IC50 (PBLUC_HILL_SLOPE 3.19, PBLUC_R_SQUARED 0.352, read-out: LUCIFERASE INFECTION ASSAY - IC50): 9.18 µM
Cc1ccc2c(c1)CCCN2C(=S)Nc1cccc(C(F)(F)F)c1 | > 9.42 µM | IC50 [1]: > 9.42 µM
CN1C(=O)Cc2cc(C3=NNC(=Nc4ccccc4F)SC3)ccc21 | > 10 µM | IC50 [1]: > 10 µM
O=C(Nc1nc2cc3c(cc2s1)OCCO3)c1cccc2c[nH]nc12 | 0.404 µM | IC50 (PBLUC_HILL_SLOPE 1.1, PBLUC_R_SQUARED 0.666, read-out: LUCIFERASE INFECTION ASSAY - IC50): 0.0549 µM
O=C(Nc1nonc1-c1ccc(Cl)cc1)C(c1ccccc1)c1ccccc1 | 8.22 µM | IC50 (FFLUC_HILL_SLOPE 3.18, FFLUC_R_SQUARED 0.644, PBLUC_HILL_SLOPE 3.44, PBLUC_R_SQUARED 0.465, read-out: LUCIFERASE INFECTION ASSAY - IC50): 4.34 µM
Cc1ccc(C(=O)C(/C=N/N)=N/Nc2cc(Cl)cc(Cl)c2)cc1 | > 9.45 µM | IC50 [1]: 9.09 µM
COc1ccc(CNC(=O)CCOc2ccc(C(C)(C)C)cc2)cc1OC | > 10 µM | IC50 (HEPG2TOX_HILL_SLOPE 0.891, HEPG2TOX_R_SQUARED 0.4, PBLUC_HILL_SLOPE 0.658, PBLUC_R_SQUARED 0.48, read-out: LUCIFERASE INFECTION ASSAY - IC50): 4.6 µM
CCCCN1C(=O)c2ccc(C(=O)C(C#N)c3nc4ccccc4[nH]3)cc2C1=O (stereo unspecified) | > 10 µM | IC50 [1]: > 10 µM
O=C(Nc1ncccc1O)c1ccc(S(=O)(=O)NCc2ccco2)cc1 | > 10 µM | IC50 (PBLUC_HILL_SLOPE 0.839, PBLUC_R_SQUARED 0.334, read-out: LUCIFERASE INFECTION ASSAY - IC50): 1.04 µM
CCCn1c(NC(=O)Cc2coc3cc(OC)ccc23)nc2ccccc21 | 1.31 µM | IC50 (FFLUC_HILL_SLOPE 16.7, FFLUC_R_SQUARED 0.137, HEPG2TOX_HILL_SLOPE 1.66, HEPG2TOX_R_SQUARED 0.728, PBLUC_HILL_SLOPE 12.1, PBLUC_R_SQUARED 0.477, read-out: LUCIFERASE INFECTION ASSAY - IC50): 1.09 µM
Cc1nn(-c2ccc(F)cc2)c(C)c1/C=C/C(=O)OCC(=O)Nc1cc(S(=O)(=O)N2CCOCC2)ccc1Cl | > 10 µM | IC50 [1]: > 10 µM
